From US10006020B2 (LESAFFRE ET COMPAGNIE, priority 2008, dated 2018)
Entries after “also recorded” stand apart in the source; their conditions may differ.

Key:
[1] = biological target: T1, Clostridium phytofermentans xylose isomerase (SEQ ID NO: 1) (Lachnoclostridium phytofermentans, UniProt A9KN98); assay: Xylitol inhibition of the xylose isomerase (method names p426H7-XI-Clos); format: biochemical
T1 construct: raw extract
Protocol: (§9) 50 ml of cultures of yeast cells were grown to the exponential phase in synthetic minimal medium with 2% glucose. The cells were harvested, washed twice in Tris-HCl buffer (pH 7.5) and disrupted by means of glass beads (Ø=0.45 nm) for 8 min on a Vibrax (Janke & Kunkel, Vibrax-VBR) at 4° C. Cell debris was removed by centrifugation for 10 min at 13,000 rpm. Subsequently, the supernatant was collected and filled up to 2 ml with cold Tris-HCl buffer (pH 7.5) and used as a raw extract for the protein determination and for the measurement of the enzyme activities or the xylitol inhibition.
(§10) The XI activity was performed at 30° C. in a reaction mix (100 mM of Tris-HCl, pH 7.5; 10 mM of MgCl2, 0.23 mM of NADH; 2 U of sorbitol dehydrogenase) with different raw extract concentrations. Additionally, different concentrations of xylitol (10-100 mM) were present in the reaction mix.

[2] = biological target: T2, Clostridium phytofermentans xylose isomerase, codon-optimized form (plasmid p426H7-opt.XI-Clos; protein SEQ ID NO: 1, ORF SEQ ID NO: 3) (Lachnoclostridium phytofermentans, UniProt A9KN98); assay: Xylitol inhibition of the xylose isomerase, codon-optimized XI gene; format: biochemical
Protocol: (§1) 50 ml of cultures of yeast cells were grown to the exponential phase in synthetic minimal medium with 2% glucose. The cells were harvested, washed twice in Tris-HCl buffer (pH 7.5) and disrupted by means of glass beads (Ø=[…]) for 8 min on a Vibrax (Janke & Kunkel, Vibrax-VBR) at 4° C. Cell debris was removed by centrifugation for 10 min at 13,000 rpm. Subsequently, the supernatant was collected and filled up to 2 ml with cold Tris-HCl buffer (pH 7.5) and used as a raw extract for the protein determination and for the measurement of the enzyme activities or the xylitol inhibition.
(§2) Recombinant yeast cells with the vector p426H7-opt.XI-Piro or the vector p426HXT7-6HIS, respectively, served as a comparison. […] The acceptance of NADH as a measured variable was determined spectrophotometrically at a wave length of 340 nm. The reaction was started by adding xylose. […]
(§3) K was determined via the equation Km′=Km′=Km*(1+i/Ki), i being the xylitol concentration used and Km′ being the apparent Km value at the corresponding xylitol concentration.
(§4) The strain CEN.PK2-1C transformed with the plasmid p426H7-opt.XI-Clos and p426H7-opt.XI-Piro, respectively, was grown over night in synthetic complete medium with 2% glucose and no uracil. Raw extracts were prepared and quantitative enzyme tests with constant xylitol concentrations of 10-100 mM were performed.

[3] = biological target: Piromyces sp. E2 xylose isomerase, codon-optimized (plasmid p426H7-opt.XI-Piro) (Piromyces sp. E2, UniProt A0ACD6B9F5); assay: Xylitol inhibition of the xylose isomerase, comparison enzyme; format: biochemical
Sequence of Piromyces sp. E2 xylose isomerase, codon-optimized (plasmid p426H7-opt.XI-Piro) (A0ACD6B9F5 1-437): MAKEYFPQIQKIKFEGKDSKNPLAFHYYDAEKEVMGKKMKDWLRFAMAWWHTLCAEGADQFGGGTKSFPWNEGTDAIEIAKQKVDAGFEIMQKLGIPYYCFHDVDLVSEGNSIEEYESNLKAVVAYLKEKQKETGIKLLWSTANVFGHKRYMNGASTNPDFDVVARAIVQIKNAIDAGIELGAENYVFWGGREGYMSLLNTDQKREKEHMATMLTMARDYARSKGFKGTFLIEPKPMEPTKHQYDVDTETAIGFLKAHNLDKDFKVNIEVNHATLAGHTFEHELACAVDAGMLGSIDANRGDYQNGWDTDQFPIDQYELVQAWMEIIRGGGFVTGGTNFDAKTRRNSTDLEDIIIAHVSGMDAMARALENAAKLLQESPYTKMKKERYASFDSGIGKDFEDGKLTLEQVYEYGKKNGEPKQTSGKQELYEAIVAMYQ
Protocol: as §9, §10

[4] = test system: Piromyces sp. E2 xylose isomerase; details: result in words, prior art; cited from earlier work
[5] = biological target: Clostridium phytofermentans xylose isomerase, native form (plasmid p426H7-XI-Clos; protein SEQ ID NO: 1, ORF SEQ ID NO: 2) (Lachnoclostridium phytofermentans, UniProt A9KN98); assay: Xylose isomerase activity, enzyme kinetics with xylose (raw extract, sorbitol dehydrogenase coupled, NADH 340 nm), native XI gene; format: biochemical; details: xylose 6.25-500 mM, 30° C.
Protocol: (§5) The strain CEN.PK2-1C transformed with the plasmid p426H7-XI-Clos and p426H7-opt.XI-Clos, respectively, was grown over night in synthetic complete medium with 2% glucose and no uracil. Raw extracts were prepared and quantitative enzyme tests were performed. A representative result is shown. The values indicated in table 3 are average values from at least 3 independent measurements.
(§6) 50 ml of cultures of yeast cells were grown to the exponential phase in synthetic minimal medium with 2% glucose. The cells were harvested, washed twice in Tris-HCl buffer (pH 7.5) and disrupted by means of glass beads (Ø=[…]) for 8 min on a Vibrax (Janke & Kunkel, Vibrax-VBR) at 4° C. Cell debris was removed by centrifugation for 10 min at 13,000 rpm. […]
(§7) Recombinant yeast cells containing the empty vector p426HXT7-6HIS served as a comparison. […] The acceptance of NADH as a measured variable was determined spectrophotometrically at a wave length of 340 nm. […]
(§8) The strain CEN.PK2-1C transformed with the plasmid p426H7-XI-Clos and p426H7-opt.XI-Clos, respectively, was grown over night in synthetic complete medium with 2% glucose and no uracil. Raw extracts were prepared and quantitative enzyme tests were performed.

[6] = biological target: T2, Clostridium phytofermentans xylose isomerase, codon-optimized form (plasmid p426H7-opt.XI-Clos; protein SEQ ID NO: 1, ORF SEQ ID NO: 3); assay: Xylose isomerase activity, enzyme kinetics with xylose (raw extract, sorbitol dehydrogenase coupled, NADH 340 nm), codon-optimized XI gene; format: biochemical; details: table 3; xylose 6.25-500 mM, 30° C., pH 7.5, raw extract
Protocol: as §5, §6, §7, §8

[7] = substrate: OC1OC[C@@H](O)[C@H](O)[C@H]1O; assay: purified protein, by the assay type; details: other: xylose 6.25-500 mM, 30° C., pH 7.5, raw extract of CEN.PK2-1C
yeast strain MKY09 = assay: Growth test on agar plates with SC medium and 2% xylose as only carbon source; format: cell-based, S. cerevisiae; details: SC medium
Text: Growth tests of recombinant S. cerevisiae strains, which include the bacterial D-xylose metabolism with the xylose isomerase from C. phytofermentans. […] The empty vector p426HXT7-6HIS (5A) served as the negative control.
In the yeast strain CEN.PK2-1C, all the genes of the non-oxidative pentose phosphate pathway as well as the xylulokinase (XKS1) and GAL2 were overexpressed. To this end, the endogenous promoters were replaced with the truncated HXT7 promoter.
The obtained PCR products were together with the vector p426HXT7-6HIS linearized with EcoRI/BamHI transformed in yeast and cloned via in vivo recombination into the plasmid between the HXT7 promoter or CYC1 terminator, respectively (FIG. 4). The sequence of the plasmids obtained was verified by means of restriction analysis. […] However, it was not possible to amplify the desired PCR product with the xylose isomerase from the organisms Streptomyces diastaticus and Leifsonia xyli. Both xylose isomerases thus could not be tested on functionality in yeast.
To this end, the codon-optimized XI-ORF was amplified with primers and cloned into the linearized vector p426HXT7-6HIS (see “Execution of the screen”). The sequence of the obtained plasmid p426H7-opt.XI-Clos was verified by means of restriction analysis. To test the functionality of the codon-optimized isomerase, the plasmid p426H7-opt.XI-Clos was transformed in the strain MKY09. […]

[8] = test system: xylose isomerase from C. phytofermentans; assay: Measurement of the xylitol inhibition of the xylose isomerase (raw extracts); format: biochemical, Clostridium phytofermentans; details: from the determined Ki values
Protocol: as §1, §2, §3, §4

## OC[C@@H](O)[C@H](O)[C@@H](O)CO [xylitol]
[1]
  Ki: 14.2 ± 1.48 mM
[1]; result in words
  xylitol inhibition: competitive inhibition; also recorded: significantly less inhibited by xylitol than the xylose isomerase from Piromyces sp.E2; also recorded: only slightly inhibited
[2]
  Ki: 14.5 ± 1.08 mM
[3]
  Ki: 4.67 ± 1.77 mM
[4]
  inhibition by xylitol: strongly inhibited

## OC1OC[C@@H](O)[C@H](O)[C@H]1O (some centres unmarked) [xylose]
[5]; table 3, pH 7.5, raw extract
  Vmax: 0.0076 μmol/min^−1 protein^−1) mg
[5]; pH 7.5, raw extract of CEN.PK2-1C
  Km: 61.8 ± 3.4 mM
[6]
  Vmax: 0.0344 μmol/min^−1 protein^−1) mg

B1: Clostridium phytofermentans xylose isomerase, native form (plasmid p426H7-XI-Clos; protein SEQ ID NO: 1, ORF SEQ ID NO: 2) (Lachnoclostridium phytofermentans … (protein)
chain: MKNYFPNVPEVKYEGPNSTNPFAFKYYDANKVVAGKTMKEHCRFALSWWHTLCAGGADPFGVTTMDRTYGNITDPMELAKAKVDAGFELMTKLGIEFFCFHDADIAPEGDTFEESKKNLFEIVDYIKEKMDQTGIKLLWGTANNFSHPRFMHGASTSCNADVFAYAAAKIKNALDATIKLGGKGYVFWGGREGYETLLNTDLGLELDNMARLMKMAVEYGRANGFDGDFYIEPKPKEPTKHQYDFDTATVLAFLRKYGLEKDFKMNIEANHATLAGHTFEHELAMARVNGAFGSVDANQGDPNLGWDTDQFPTDVHSATLAMLEVLKAGGFTNGGLNFDAKVRRGSFEFDDIAYGYIAGMDTFALGLIKAAEIIDDGRIAKFVDDRYASYKTGIGKAIVDGTTSLEELEQYVLTHSEPVMQSGRQEVLETIVNNILFR
[7]
  Km: 61.85 ± 3.41 mM
  Vmax: 0.0076 μmol/min^−1 mg protein^−1

B2: xylose isomerase from C. phytofermentans: prokaryotic xylose isomerase of Clostridium phytofermentans, protein SEQ ID NO: 1; gene form not specified at the place (protein)
chain: MKNYFPNVPEVKYEGPNSTNPFAFKYYDANKVVAGKTMKEHCRFALSWWHTLCAGGADPFGVTTMDRTYGNITDPMELAKAKVDAGFELMTKLGIEFFCFHDADIAPEGDTFEESKKNLFEIVDYIKEKMDQTGIKLLWGTANNFSHPRFMHGASTSCNADVFAYAAAKIKNALDATIKLGGKGYVFWGGREGYETLLNTDLGLELDNMARLMKMAVEYGRANGFDGDFYIEPKPKEPTKHQYDFDTATVLAFLRKYGLEKDFKMNIEANHATLAGHTFEHELAMARVNGAFGSVDANQGDPNLGWDTDQFPTDVHSATLAMLEVLKAGGFTNGGLNFDAKVRRGSFEFDDIAYGYIAGMDTFALGLIKAAEIIDDGRIAKFVDDRYASYKTGIGKAIVDGTTSLEELEQYVLTHSEPVMQSGRQEVLETIVNNILFR
modifications: Clostridium phytofermentans
notes: gene form not specified at the place
Yeast strain MKY09
  growth on plates containing xylose: good growth
[8]
  inhibition by xylitol compared with the xylose isomerase from Piromyces sp.E2: significantly less inhibited by xylitol

B3: Clostridium phytofermentans xylose isomerase, codon-optimized form (plasmid p426H7-opt.XI-Clos; protein SEQ ID NO: 1, ORF SEQ ID NO: 3) (Lachnoclostridium … (protein)
chain: MKNYFPNVPEVKYEGPNSTNPFAFKYYDANKVVAGKTMKEHCRFALSWWHTLCAGGADPFGVTTMDRTYGNITDPMELAKAKVDAGFELMTKLGIEFFCFHDADIAPEGDTFEESKKNLFEIVDYIKEKMDQTGIKLLWGTANNFSHPRFMHGASTSCNADVFAYAAAKIKNALDATIKLGGKGYVFWGGREGYETLLNTDLGLELDNMARLMKMAVEYGRANGFDGDFYIEPKPKEPTKHQYDFDTATVLAFLRKYGLEKDFKMNIEANHATLAGHTFEHELAMARVNGAFGSVDANQGDPNLGWDTDQFPTDVHSATLAMLEVLKAGGFTNGGLNFDAKVRRGSFEFDDIAYGYIAGMDTFALGLIKAAEIIDDGRIAKFVDDRYASYKTGIGKAIVDGTTSLEELEQYVLTHSEPVMQSGRQEVLETIVNNILFR
[7]
  Km: 66.01 ± 1^ mM
  Vmax: 0.0344 μmol/min^−1 mg protein^−1
